Measured values from article PMC7897990, “TriTOX: A novel Trichomonas vaginalis assay platform for high-throughput screening of compound libraries” (International Journal for Parasitology: Drugs and Drug …, 2021).
Entries after “also recorded” stand apart in the source; their conditions may differ. Read-outs that look alike come from different tables or passages of the source.

Tests used:
T. vaginalis = assay: Medium-throughput (MTS) confirmatory dose-response growth assay, T. vaginalis; type: cell-based, Trichomonas vaginalis; conditions: for activity against T. vaginalis in MTS, in words: 10-point dilution series, 96-well; for activity against T. vaginalis in MTS, in words / IC50: 48 h; for IC50: 96-well, 10,000 cells/mL in 50 μL, mean ± SEM, >10 = no appreciable activity at highest dose; for species-specificity T. vaginalis vs T. foetus in MTS: comparison of MTS IC50 in both species
Procedure: (§1) For microtiter plate assays, trichomonads were grown in anaerobic conditions within GasPak EZ anaerobe pouches with fresh anaerobic sachets. Working reagent of the chromogen was phenol red (Sigma) in a 1% w/v working solution in phosphate buffered saline (PBS), which was filter sterilised. Chromogen absorbance was monitored at 570 nm on an absorbance microplate reader after plates were allowed to equilibrate in atmospheric conditions at room temperature for at least 5 min.
(§2) After absorbances were measured, data were processed as followed unless indicated otherwise in the text. […] Prism 8 (GraphPad) was used to plot dose-response curves and calculate IC50 values, using a least squares regression, log[inhibitor] vs normalised response (variable slope, four parameters) model. Where replicate plates were used, data for dose-response curves were plotted as the mean±SD of these replicates.
(§3) A selection of 17 compounds assayed in the high-throughput screen (HTS) for T. vaginalis which were available through BioAustralis were obtained for validation of inhibitory in/activity in our optimised medium-throughput format. For this, a 10-point serial dilution was used for drug-susceptibility testing to calculate IC50 values of ‘hit’ compounds. Mtz was used as a positive control. Each screen was performed with 3 technical replicates and a minimum of 2 biological replicates in both T. vaginalis and T. foetus using assay conditions of seeds of 10,000 cells/mL in 50 μL, with absorbance measured at 48 h. Dose response curves and IC50 were calculated for each compound as described above in Section 2.3.

T. foetus = assay: Medium-throughput (MTS) confirmatory dose-response growth assay, T. foetus; type: cell-based, Tritrichomonas foetus; conditions: 48 h; for activity against T. foetus in MTS, in words: 10-point dilution series, 96-well; for IC50: 96-well, 10,000 cells/mL in 50 μL, mean ± SEM, >10 = no appreciable activity at highest dose
Procedure: as §1, §2, §3

[1] = system: Trichomonas vaginalis G3 trophozoites; conditions: for T. vaginalis HTS results / T. vaginalis HTS result in words: 384-well, 25 μL, 10,000 cells/mL, 48 h, biological duplicates; for T. vaginalis HTS results: 10% chromogen, single concentration; for T. vaginalis HTS result in words: hit = >50% inhibition; for T.vaginalis_Absorbance_Rep1: replicate 1, raw absorbance; for T.vaginalis_Absorbance_Rep2: replicate 2, raw absorbance
[2] = system: nontumorigenic neonatal foreskin fibroblast (NFF) cell line
[3] = system: Staphylococcus aureus (ATCC 25923); type: cell-based; conditions: 5 μg/mL
[4] = system: Bacillus subtilis (ATCC 6633); type: cell-based; conditions: 5 μg/mL
[5] = system: Trichomonas vaginalis G3 trophozoites; assay: microbe, parasite or virus in culture; conditions: 48 h
[6] = HTS, parasite screen at 1 µg/mL, replicate 1
[7] = HTS, parasite screen at 1 µg/mL
[8] = HTS, parasite screen at 1 µg/mL, replicate 2
[9] = read-out: T.vaginalis_%inb_Rep1
[10] = read-out: T.vaginalis_%inb_Rep2
[11] = NFF fibroblast screen at 5 µg/mL, A = active, I = inactive

| Structure (SMILES) | activity against T. vaginalis in MTS, in words (T. vaginalis) | IC50 (T. vaginalis; Trichomonas vaginalis) | IC50 (T. foetus; Tritrichomonas foetus) | T. vaginalis HTS result in words [1] | IC50 (T. vaginalis) | IC50 (T. foetus) | species-specificity T. vaginalis vs T. foetus in MTS (T. vaginalis) | further results |
| --- | --- | --- | --- | --- | --- | --- | --- | --- |
| CCC(=O)CCCCC[C@@H]1NC(=O)[C@H]2CCCCN2C(=O)[C@H]([C@@H](C)CC)NC(=O)[C@H](Cc2cn(OC)c3ccccc23)NC1=O [Apicidin, apicidin] | confirmed active; also recorded: micromolar IC50 values | 1.2 ± 0.1 µM | 1.9 ± 0.2 µM | inactive in both T. vaginalis HTS replicates | – | – | – | activity against T. foetus in MTS, in words (T. foetus): micromolar IC50 values; T. vaginalis HTS results [1]: I |
| O=[N+]([O-])c1ncc[nH]1 [Azomycin, azomycin] | confirmed active; also recorded: inconsistent activity | 9.7 ± 5.5 µM | 8.6 ± 4.3 µM | inactive | – | – | – | T. vaginalis HTS results [1]: I |
| COc1ccc2cc1Oc1cc(ccc1O)[C@H](O)[C@]13SS[C@@]4(C(=O)N1C)[C@H](O)C1=COC=C[C@H](OC2=O)[C@H]1N4C3=O [Emestrin, emestrin, reference compound] | inactive | – | – | partial hits | > 10 µM | 7.3 ± 3.3 µM | – | activity against T. foetus in MTS, in words (T. foetus): inconsistent between biological replicates; T.vaginalis_%inb_Rep1 [1, 6]: 12.22%; T.vaginalis_Absorbance_Rep1 [1, 7]: 0.943; T.vaginalis_%inb_Rep2 [1, 8]: 63.12%; T.vaginalis_Absorbance_Rep2 [1, 7]: 1.619; NFF_Activity ([2]; NFF_NS1 screen at 5 µg/mL): A (active (A) compounds having >25% inhibitory activity) |
| CO[C@@H]1[C@H](OC(=O)/C=C/C=C/C=C/C=C/C(=O)O)CC[C@]2(CO2)[C@H]1[C@@]1(C)O[C@@H]1CC=C(C)C [Fumagillin, fumagillin, reference compound] | near nanomolar potency | 0.26 ± 0.11 µM | 0.18 ± 0.03 µM | – | – | – | – | activity against T. vaginalis in MTS, in words (T. vaginalis; listed as fumagillin): true positives; activity against T. foetus in MTS, in words (T. foetus): near nanomolar potency; antibacterial activity against Staphylococcus aureus [3]: no anti-bacterial; antibacterial activity against Bacillus subtilis [4]: no anti-bacterial; T.vaginalis_Absorbance_Rep1 [1, 7]: 1.617; T.vaginalis_Absorbance_Rep2 [1, 7]: 1.25; cytotoxic activity (NFF) [2]: no anti-bacterial nor cytotoxic activity; inhibition of growth at 1 µg/mL [5, 9]: 48.9%; inhibition of growth at 1 µg/mL [5, 10]: 45.5% |
| CN1C(=O)[C@]23CC4=CC=C[C@H](O)[C@H]4N2C(=O)[C@@]1(CO)SS3 [Gliotoxin, gliotoxin, reference compound] | no activity | > 10 µM | > 10 µM | – | – | – | – | T.vaginalis_Absorbance_Rep1 [1, 7]: 2.103; T.vaginalis_Absorbance_Rep2 [1, 7]: 1.862; NFF_Activity ([2]; NFF_NS1 screen at 5 µg/mL): A (active (A) compounds having >25% inhibitory activity); inhibition of growth at 1 µg/mL [5, 9]: 71%; inhibition of growth at 1 µg/mL [5, 10]: 78.7% |
| CCC(C)CC1CCC(O)(C(C)(O)C(=O)NC2C(=O)N3NCCCC3C(=O)N(O)C(C)C(=O)NCC(=O)N3NCCCC3C(=O)N(O)C(C)C(=O)OC2C(C)C)OC1C (stereo not shown) [L 156602] | true positives | – | – | – | 0.059 ± 0.004 µM | 0.44 ± 0.18 µM | – | – |
| CC(C=CC1OC(=O)C=CC1C)=CC(C)CC=CC(C)=CC(C)C(=O)C(C)C(O)C(C)CC(C)=CC(=O)O (stereo not shown) [Leptomycin A, leptomycin A] | true negatives | – | – | – | > 10 µM | > 10 µM | – | T. vaginalis HTS results [1]: I |
| CCC(=C/[C@H](C)C/C=C/C(C)=C/[C@@H](C)C(=O)[C@@H](C)[C@H](O)[C@@H](C)C/C(C)=C/C(=O)O)/C=C/[C@@H]1OC(=O)C=C[C@@H]1C [Leptomycin B, leptomycin B] | no activity | > 10 µM | > 10 µM | – | – | – | – | – |
| COC(=O)c1ccc(CCCCCCCCCCc2ccc(C(=O)OC)nc2)cn1 [Penicolinate A, penicolinate A] | true positives | – | – | – | 2.7 ± 0.9 µM | – | selective activity against T. vaginalis but not T. foetus | activity against T. foetus in MTS, in words (T. foetus): weak activity; T.vaginalis_%inb_Rep1 ([1]; HTS replicate 1, parasite screen 1 µg/mL): 78.85%; T.vaginalis_%inb_Rep2 ([1]; HTS replicate 2, parasite screen 1 µg/mL): 85.50% |
| CSC[S@+]([O-])C[C@H](CO)NC(=O)/C=C/c1c(C)[nH]c(=O)[nH]c1=O [Sparsomycin, sparsomycin] | true positives | 2.3 µM | > 10 µM | – | – | – | selective activity against T. vaginalis but not T. foetus | – |
| Cn1ncnc2c(=O)n(C)c(=O)nc1-2 [Toxoflavin, toxoflavin, reference compound] | confirmed active | – | – | partial hits | 3.1 ± 1.7 µM | 4.1 ± 0.9 µM | remained active against both T. vaginalis and T. foetus | T.vaginalis_%inb_Rep1 [1, 6]: 5.72%; T.vaginalis_%inb_Rep2 [1, 8]: 100.00%; NFF_Activity [2, 11]: A (active (A) compounds having >25% inhibitory activity) |
| N#Cc1cn([C@@H]2O[C@H](CO)[C@@H](O)[C@H]2O)c2ncnc(N)c12 [Toyocamycin, toyocamycin, reference compound] | true positives | 0.3 ± 0.01 µM | 2.4 ± 0.7 µM | supported the anti-trichomonal activity | – | – | remained active against both T. vaginalis and T. foetus | NFF_Activity [2, 11]: I (otherwise these were reported as inactive (I)); inhibition of growth at 1 µg/mL [5, 9]: 69.9%; inhibition of growth at 1 µg/mL [5, 10]: 77.5% |
| CC(/C=C/C(=O)NO)=C\[C@@H](C)C(=O)c1ccc(N(C)C)cc1 [Trichostatin A, trichostatin A, reference compound] | – | – | – | supported the anti-trichomonal activity | 0.22 ± 0.06 µM | 0.048 ± 0.006 µM | – | activity against T. vaginalis in MTS, in words (T. vaginalis; listed as TSA): true positives; T.vaginalis_%inb_Rep1 [1, 6]: 71.95%; T.vaginalis_%inb_Rep2 [1, 8]: 67.89%; NFF_Activity [2, 11]: I (otherwise these were reported as inactive (I)) |
| CC(C=CC(=O)NOC1OC(CO)C(O)C(O)C1O)=CC(C)C(=O)c1ccc(N(C)C)cc1 (stereo not shown) [Trichostatin C, trichostatin C, reference compound] | true negatives | – | – | – | > 10 µM | > 10 µM | – | T. vaginalis HTS results [1]: I; T.vaginalis_%inb_Rep1 [1, 6]: 10.28%; T.vaginalis_%inb_Rep2 [1, 8]: 10.24% |
| Nc1ncnc2c1ccn2[C@@H]1O[C@H](CO)[C@@H](O)[C@H]1O [Tubercidin, tubercidin] | true positives | 2.4 ± 0.1 µM | > 10 µM | – | – | – | selective activity against T. vaginalis but not T. foetus | NFF_Activity [2, 11]: A (active (A) compounds having >25% inhibitory activity); inhibition of growth at 1 µg/mL [5, 9]: 63.8%; inhibition of growth at 1 µg/mL [5, 10]: 76% |
